Experiment [1] concerns soluble C5b-9. Nature of the experiment: Soluble C5b-9 ELISA of the RPE cell-based assay medium. Also noted: species or system human. The settings on record: peptide 1 μM; for soluble C5b-9 in assay medium relative to positive control: 10% human complement serum, ~24 hrs, mean±S.E.M., three donors; for Assay medium C5b-9 ELISA % of positive control: RPE cell assay medium, Mean (S.E.M.). On the procedure:
(§1) The in vitro drusen biogenesis model was employed. Human fetal RPE cells (Advanced Bioscience Resources, Alameda, Calif.) were cultured on Millipore HA porous supports (Millipore, Cat # PIHA 01250) in Miller medium (Maminishkis et al., 2006) supplemented with 5% fetal calf serum (FCS). Cultures derived from three different donor eyes were employed. Cells were rinsed with warm, sterile PBS and the insert membrane was excised with a scalpel and cut into small (˜4 mm^2) pieces which were placed in wells of a 96-well plate. To minimize effects of inter-culture variability, samples prepared from a single membrane were utilized for each experiment. The samples were rinsed in PBS and then exposed individually to the library of compstatin family peptides at 1 μM in FCS-free Miller medium containing 10% human complement serum (Innovative Research, Cat # IPLA-CSER AB, Lot # L12402). In preliminary experiments, compstatin family Peptides I, III, VI, VII, VIII, IX, and Parent (Table 7), were tested in the RPE cell assay at 100 μM and titrated by C5b-9 ELISA over a concentration range of 0.04-130 μM. […] Also from this assessment, Peptide VI, as well as Peptides I and III, were selected for further studies. Peptides I and III were chosen for comparative studies to Peptide VI, because they contain an arginine residue at position 1. The goal was to determine whether peptides containing arginine at position −1 (Peptide VI) or at position 1 (Peptides I and III) were potent complement inhibitors using the RPE cell assay and had improved aqueous solubility compared to previously known potent analogs. Negative control cells were exposed to Miller medium+5% FCS; positive control cells were exposed to Miller medium+10% human complement serum without inhibitory peptides. Experimental and control medium/inhibitor solutions were pre-mixed on a rocker at room temperature for 30 min, then warmed to 37° C., prior to placement on the samples and incubation for ˜24 hrs at 37° C. in a 7.0% CO2 incubator. Following the incubation period, the medium was removed and stored frozen prior to ELISA analysis. The cell/membrane samples were rinsed in PBS, fixed in cold 4% paraformaldehyde (PFA) in PBS for 20 min, and stored in 0.4% PFA until use in immunohistochemical assays.
Soluble C5b-9 ELISA of the RPE Cell-Based Assay Medium.
Experimental medium solutions were diluted 1/625 in assay diluent and quadruplicate ELISAs were performed using an OptEIA C5b-9 ELISA kit (BD Biosciences, Cat #558315). Plates were read at 450 nm, with absorbance at 570 nm subtracted for wavelength correction, on a BioRad Benchmark plate reader. C5b-9 concentrations were calculated using a standard curve generated using purified human C5b-9. Data was expressed as a percentage relative to the positive (human serum only) control. Means and standard errors for data from the three RPE donor cells were calculated and graphed using SigmaPlot 11.0 (Systat Software, San Jose, Calif.), and one-way ANOVA was calculated using Tukey's test for multiple comparisons.

Experiment [2] deals with Human fetal RPE cells. Nature of the experiment: RPE cell-based assay: confocal analysis of deposit-associated C5b-9 (normalized to ApoE). As to conditions: peptide 1 μM; for deposit-associated C5b-9 (C5b-9/ApoE) relative to positive control: ~24 hrs, mean±S.E.M., RPE cultures of three donors; for Confocal Imaging % of positive control: deposit-associated C5b-9 normalized to ApoE, Mean (S.E.M.). The protocol: as §1
Fixed samples were rinsed several times in PBS, embedded in 10% agarose (Type XI, Sigma-Aldrich, Cat # A3038) and sectioned at 100 μm on a vibratome. Sections were blocked with normal donkey serum ( 1/20 in PBT: PBS containing 0.5% bovine serum albumin and 0.1% Triton X-100) overnight at 4° C. The sections were then co-incubated in two primary antibodies (polyclonal goat anti-ApoE, Millipore Cat # AB947; 1/1000 in PBT, and mouse monoclonal anti-05b-9 aEll, Dako Cat # M0777; 1/200 in PBT) overnight at 4° C., then rinsed in PBT and co-incubated in secondary antibodies (Alexa Fluor 546-conjugated donkey anti-goat IgG and Alexa Fluor 488-conjugated donkey anti-mouse IgG, both 1/200 in PBT; Life Technologies Cat # A-11056 and # A-21202) overnight at 4° C. Sections were rinsed in PBT, stained with Hoechst 33342 (Life Technologies Cat # H3570), and mounted on slides with Prolong Gold (Life Technologies Cat # P36930).
Samples were imaged on an Olympus FV1000 confocal laser scanning microscope. A total of 154 single-plane images were acquired at a resolution of 1024×768 pixels and the digital image files were saved in 24-bit tiff format. Digital image analysis was performed with MetaMorph software (Molecular Devices, Sunnyvale, Calif.). For the analysis, a standard measurement region, which included both the RPE cell monolayer and all of the adjacent sub-cellular deposits, was applied to each image. The Set Threshold Color Tool was utilized to analyze each color channel separately; the threshold tool creates a boundary around the objects being measured (i.e., sub-cellular deposits) on the basis of color intensity. […]

Experiment [3] relates to complement alternative pathway (AP). Nature of the experiment: Hemolytic assay (rabbit erythrocyte lysis in human serum). The format is cell-based. The settings on record: for IC50: Table 9, means from three independent experiments, read-out: IC50, Hemolytic assay. The protocol: Inhibition of complement was also measured via lysis of erythrocytes. Rabbit erythrocytes (Complement Technology Inc., Tyler, Tex., USA) were washed in PBS and resuspended in veronal-buffered saline with 5 mM MgCl2 and 10 mM EGTA (VBS-MgEGTA). Peptide and serum dilutions were prepared as described above, and 1×10^7 erythrocytes were added to each serum/peptide mixture. Erythrocytes diluted in sterile deionized water and in VBS-MgEGTA were used as positive and negative controls for lysis, respectively. Plates were incubated for 20 minutes at 37° C., and centrifuged at 2500×g for 10 minutes.
In all assays, MgEGTA was used to chelate Ca′ ions required for classical/lectin pathway complement activation, while providing Mg′ necessary for AP activation. ELISAs allow for direct detection of C3b and C5b-9 formed during AP activation, while erythrocyte lysis assays provide a functional assessment of AP-mediated hemolysis in serum.

SMILES strings stand for the structures. “And” between values parts separate entries of the source, which are not always exact repeats. Equal values may be shown once. Marks after values point to notes of the source that are not given here. Bridge positions count the residues as written; N and C are the ends. Square brackets hold non-standard residues; d marks the D form. Peptide text beside a SMILES is read from it. Trp(1-Me) = Cn1cc(C[C@H](N)C(=O)O)c2ccccc21

Broadly, the IC50 is the point on the concentration scale where inhibition reaches its midpoint. As to `CC(=O)N[C@@H](CCCNC(=N)N)C(=O)N[C@H]1CSSC[C@@H](C(=O)N[C@H](C(N)=O)[C@@H](C)O)NC(=O)[C@H](CCCNC(=N)N)NC(=O)[C@H](Cc2c[nH]cn2)NC(=O)[C@H](C)NC(=O)CNC(=O)[C@H](Cc2c[nH]c3ccccc23)NC(=O)[C@H](CC(=O)O)NC(=O)[C@H](CCC(N)=O)NC(=O)[C@H](Cc2c[nH]c3ccccc23)NC(=O)[C@H](C(C)C)NC1=O` [Peptide I, Ac- RCV WQDWGA HRCT-NH2] (Ac-RCVWQDWGAHRCT-NH2; disulfide 2-12), in experiment [1], the “soluble C5b-9 in assay medium relative to positive control” value was determined as 61.4±2.3% and the “Assay medium C5b-9 ELISA % of positive control” value (from here on “Assay medium C5b-9 ELISA %”) was 61.37 (2.34)^a % of positive control. In addition, the “deposit-associated C5b-9 (C5b-9/ApoE) relative to positive control” value in experiment [2] (10% human complement serum) stood at 55.3±12.3%. Besides, the “Confocal Imaging % of positive control” value in experiment [2] was 55.27 (12.30)^a % of positive control. Besides, the IC50 in experiment [3] was 3.33 µM.
`CC[C@H](C)[C@H](N)C(=O)N[C@H]1CSSC[C@@H](C(=O)N[C@H](C(N)=O)[C@@H](C)O)NC(=O)[C@H](CCCN=C(N)N)NC(=O)[C@H](Cc2cnc[nH]2)NC(=O)[C@H](Cc2cnc[nH]2)NC(=O)CNC(=O)[C@H](Cc2c[nH]c3ccccc23)NC(=O)[C@H](CC(=O)O)NC(=O)[C@H](CCC(N)=O)NC(=O)[C@H](C(C)C)NC(=O)[C@H](C(C)C)NC1=O` [Parent, ICV VQDWGH HRCT-NH2, reference compound]: in experiment [1], the “soluble C5b-9 in assay medium relative to positive control” value was determined as 88.5±0.76% and the “Assay medium C5b-9 ELISA %” value is reported as 88.49 (0.76) % of positive control. In experiment [2] (10% human complement serum), the “deposit-associated C5b-9 (C5b-9/ApoE) relative to positive control” value is given as 83.2±5.9%. The “Confocal Imaging % of positive control” value in experiment [2] is given as 83.19 (5.92) % of positive control. The IC50 in experiment [3] worked out at 12.9 µM. Also, the “difference in inhibition to other peptides” value in experiment [3] (hemolysis, versus Peptides I, III, VI, IX) was 4- to 6 fold.
`CC(=O)N[C@@H](CCCNC(=N)N)C(=O)N[C@H]1CSSC[C@@H](C(=O)N[C@H](C(N)=O)[C@@H](C)O)NC(=O)[C@H](CCCNC(=N)N)NC(=O)[C@H](Cc2c[nH]cn2)NC(=O)[C@H](C)NC(=O)CNC(=O)[C@H](Cc2c[nH]c3ccccc23)NC(=O)[C@H](CC(=O)O)NC(=O)[C@H](CCC(N)=O)NC(=O)[C@H](Cc2cn(C)c3ccccc23)NC(=O)[C@H](C(C)C)NC1=O` [Peptide III, Ac- RCV meWQDWGA HRCT-NH2] (Ac-RCV[Trp(1-Me)]QDWGAHRCT-NH2; disulfide 2-12): in experiment [1], the “soluble C5b-9 in assay medium relative to positive control” value is 50.0±0.8% and the “Assay medium C5b-9 ELISA %” value is recorded as 50.02 (0.82) % of positive control. Also, the “deposit-associated C5b-9 (C5b-9/ApoE) relative to positive control” value in experiment [2] (10% human complement serum) worked out at 20.0±6.8%. The “Confocal Imaging % of positive control” value in experiment [2] was 19.98 (6.84) % of positive control. The IC50 in experiment [3] was 2.25 µM.
With `CC[C@H](C)[C@H](NC(=O)[C@H](CO)NC(=O)[C@H](CCCNC(=N)N)NC(C)=O)C(=O)N[C@H]1CSSC[C@@H](C(=O)N[C@H](C(N)=O)[C@@H](C)O)NC(=O)[C@H](CCCNC(=N)N)NC(=O)[C@H](Cc2c[nH]cn2)NC(=O)[C@H](C)NC(=O)CNC(=O)[C@H](Cc2c[nH]c3ccccc23)NC(=O)[C@H](CC(=O)O)NC(=O)[C@H](CCC(N)=O)NC(=O)[C@H](Cc2cn(C)c3ccccc23)NC(=O)[C@H](C(C)C)NC1=O` [Peptide VI, Ac-RS-ICV meWQDWGA HRCT-NH2], in experiment [1], the “soluble C5b-9 in assay medium relative to positive control” value came out at 44.6±3.2% and the “Assay medium C5b-9 ELISA %” value was 44.60 (3.16) % of positive control. Further, the “Deposit-associated C5b9 (green channel) immunofluorescence, Integrated Area” value in experiment [2] (RPE 020207, 10% human complement serum, one value per image) was 86318 pixels and 70370 pixels and 77727 pixels and 91254 pixels and 59969 pixels. The “deposit-associated C5b-9 (C5b-9/ApoE) relative to positive control” value in experiment [2] (10% human complement serum) came out at 14.9±5.6%. The “Confocal Imaging % of positive control” value in experiment [2] is 14.85 (5.61) % of positive control. In experiment [3], the IC50 came out at 2.23 µM.
